Values of other authors as cited in patent publication US20060269596A1, “Controlled release compositions comprising an acylanilide” (priority 2005, published 2006).

Legend:
[1] = 37 C

For `CC(O)(CS(=O)(=O)c1ccc(F)cc1)C(=O)Nc1ccc(C#N)c(C(F)(F)F)c1` (racemic) [Bicalutamide], the solubility in water [1] is listed as 5 mg per 1000 mL, the “absorption following oral administration” value (oral) is listed as “well-absorbed” and the “effect of co-administration with food on rate or extent of absorption” value (with food) is listed as “no clinically significant effect”.
